Key:
QHJ-I01 human iPS cell = assay: Corin-positive ratio by flow cytometry with anti-Corin antibody on Day 12 after preconditioning of iPS cells in medium for maintaining undifferentiated state; type: cell-based; settings: for Corin-positive ratio as compared with the control: summary of Table 1
Protocol: QHJ-I01, which is a human iPS cell, has been produced by introducing of Oct3/4, Sox2, KIf4, L-MYC, LIN28, and a dominant-negative form of p53 (Okita, K., et al., Stem Cells, 31, 458-66 (2013); WO2013/176233) into human PBMC by an episomal vector. The cells were received from Professor Yamanaka of Kyoto University, et al.
The iPS cells were cultured according to the method described by Miyazaki T, et al., Nat Commun. 3: 1236, 2012. Specifically, maintenance culture was performed in a medium for maintaining undifferentiated state containing FGF2 (bFGF) on a 6-well plate coated with Laminin-511 E8.
24 hours before the start of differentiation induction by exchange with a differentiation medium, the medium was exchanged with StemFit AK03N (Ajinomoto Healthy Supply Co., Inc.), which was a medium for maintaining undifferentiated state containing SAG (Enzo Life Sciences, Inc., 300 nM), an SHH signal stimulant, to obtain a cell population comprising iPS cells.
The cell population comprising iPS cells after culturing for 24 hours in the presence of SAG as described above was dissociated using TrypLE CTS (Life Technologies), and the cells were inoculated on a 6-well plate coated with Laminin-511 E8 (iMatrix-511, Nippi, Inc.) prepared separately, in an amount of 5×10^6 cells per well. The medium was replaced with a differentiation medium [a basal medium A [GMEM (Invitrogen) supplemented with 8% KSR (Invitrogen), 1 mM Sodium pyruvate (Invitrogen), 0.1 mM MEM nonessential amino acid (Invitrogen), and 0.1 mM 2-Mercaptoethanol (WAKO)] containing 10 μM Y-27632 (WAKO), 0.1 μM LDN 193189 (Stemgent, Inc.), and 0.5 μM A83-01 (WAKO)]. On the next day (Day 1), the medium was replaced with Basal Medium A supplemented with 0.1 μM LDN193189, 0.5 μM A83-01, 2 μM Purmorphamine (WAKO), and 100 ng/mL FGF8 (WAKO). Two days later (Day 3), the medium was replaced with Basal Medium A supplemented with 0.1 μM LDN193189, 0.5 μM A83-01, 2 μM Purmorphamine, 100 ng/mL FGF8, and 3 μM CHIR99021 (WAKO). Four days later (Day 7), the medium was replaced with Basal Medium A supplemented with 0.1 μM LDN193189 and 3 μM CHIR99021. During the above period, the medium was replaced once a day. A flow cytometry analysis using an anti-Corin antibody was performed on the 12th day of the start of differentiation induction (Day 12) (FIG. 1).
An anti-Corin antibody was prepared by the following method. First, from the Corin gene of Macaca fascicularis, a gene sequence encoding a part of the extracellular domain (79th-453rd amino acids) was introduced into 293E cells, and the cells were then allowed to express the extracellular-domain fragment of Corin protein, followed by collecting the protein. Mice were immunized with the recovered protein, and lymphocytes were then extracted and fused with myeloma cells. From the cell population after the fusion, a clone having reactivity with Corin was selected. The culture supernatant of the clone was used after attaching a fluorescent label as the anti-Corin monoclonal antibody.
Five days after the culture in Basal Medium A supplemented with 0.1 μM of LDN193189 and 3 μM CHIR99021, namely on the 12th day of the start of differentiation induction (Day 12), the cells were dissociated using TrypLE CTS, and suspended in Ca^2+Mg^2+-free HBSS (Invitrogen) supplemented with 2% FBS, 10 μM Y-27632 (WAKO), 20 mM D-glucose, and 50 μg/mL penicillin/streptomycin. The anti-Corin antibody was added to the suspension, and the resulting mixture was incubated at 4° C. for 20 minutes, the cells were sorted using FACS (BD) to collect Corin-positive cells, and the cell number was counted.
Similar to Example 1, experiments in which the concentration of SAG added was changed, and experiments in which A83-01 or LDN 193189 was added at the same time with SAG, were conducted, and the Corin-positive ratio were measured.

[1] = tested on: model rat of Parkinson's disease (6-OHDA uni-laterally administered rat); assay: Cell transplantation into striatum of Parkinson's disease model rat, graft staining with TH and HuNu after 4 weeks; type: in vivo; settings: for TH-ratio with respect to HuNu-positive cells as 100%: graft of cells cultured in the presence of SAG (300 nM)
Protocol: In this case, the medium was replaced in half every 3 days.
A plurality of cell aggregates containing 4×10^5 cells obtained as described above were suspended in 2 μL of physiological saline, and injected into the striatum of a model rat of Parkinson's disease (6-OHDA uni-laterally administered rat) using a 22 gauge injection needle, and the appearance of the graft after 4 weeks was observed (FIG. 5).

LPF 11 human iPS cell = assay: Corin-positive ratio on Day 12, iPS cells generated by another method; type: cell-based; settings: SAG 300 nM preconditioning vs absence of SAG, FIG. 4
Excerpt: LPF 11, a human iPS cell, has been established by introducing Oct3/4, Sox2, KIf4, and L-MYC into human PBMC by a Sendai virus vector (Cytotune 2.0 L, produced by ID Pharma Co., Ltd.), and culturing the same by the method according to the protocol published by Kyoto University (Establishment, maintenance culture of human iPS cells; CiRA Ff-iPSC_protocol_JP_v140310, //www.cira.kyoto-u.ac.jp/j/research/protocol.html) using StemFit medium (produced by Ajinomoto Healthy Supply Co., Inc. Inc.), and Laminin-511 E8 (produced by Nippi, Inc.).
Using this iPS cell, culturing and differentiation induction were carried out in the same manner as in Example 1 and the percentage of the number of Corin-positive cells with respect to the total cell number was measured on the 12th day (Day 12) using an anti-Corin antibody.

Row | SMILES | Corin-Positive Rate (%) (QHJ-I01 human iPS cell; LDN193189 (100 nM) alone) | Corin-positive ratio as compared with the control (QHJ-I01 human iPS cell) | ratio of the number of TH-positive cells to the number of HuNu-positive cells, SAG-treated cell graft vs non-treated cell graft ([1]; 4 weeks after grafting) | TH-ratio with respect to HuNu-positive cells as 100% ([1]; 4 weeks) [%] | TH-ratio with respect to HuNu-positive cells as 100% ([1]; 4 weeks after grafting, average) [%] | TH-ratio with respect to HuNu-positive cells as 100% ([1]; 4 weeks, individual (2)) [%] | percentage of Corin-positive cells (QHJ-I01 human iPS cell; SAG 300 nM for 24 hours before differentiation induction vs absence of SAG, FIG. 2) | Corin-Positive Rate (%) (QHJ-I01 human iPS cell; SAG (10 nM) added to medium for maintaining undifferentiated state before differentiation induction) | Corin-Positive Rate (%) (QHJ-I01 human iPS cell; SAG (300 nM)) | percentage of Corin-positive cells (LPF 11 human iPS cell) | Corin-Positive Rate (%) (QHJ-I01 human iPS cell; A83-01 (500 nM) alone)
1 | c1ccc2c(-c3cnn4cc(-c5ccc(N6CCNCC6)cc5)cnc34)ccnc2c1 [LDN193189] | 12.6 | no effect | – | – | – | – | – | – | – | – | –
2 | CNC1CCC(N(Cc2cccc(-c3ccncc3)c2)C(=O)c2sc3ccccc3c2Cl)CC1 (stereo not shown) [SAG] | – | improves depending on the concentration of SAG added | no difference | 6.1 | 9.24 | 12.37 | increased | 22.7 | 32.1 | increased | –
3 | Cc1cccc(-c2nn(C(=S)Nc3ccccc3)cc2-c2ccnc3ccccc23)n1 [A83-01, 3-(6-methyl-2-pyridinyl)-N-phenyl-4-(4-quinolinyl)-1H-pyrazole-1-carbothioamide] | – | no effect | – | – | – | – | – | – | – | – | 12.4

From patent publication US12516286B2, “Method for producing dopaminergic neuron progenitor cell” (KYOTO UNIVERSITY, priority 2016, dated 2026)
